Like-named read-outs stand apart in the source and are kept apart here.
Experiments:
[1] = system: ENCDC isolated from E15 fetal mouse gut; assay: Development/survival of enteric neurons from cultured ENCDC isolated from E15 fetal mouse gut; assay type: cell-based; details: ENCDC culture; for development/survival of total enteric neurons / development/survival of early-born (calretinin) neurons / development/survival of late-born enteric neurons that express TH or GABA / effect on development/survival of late-born neurons compared with total neurons: serum-free media; for development/survival of total enteric neurons: prucalopride 2.5 μM, BIMU-8 2.5 μM; for development/survival of early-born (calretinin) neurons / development/survival of late-born enteric neurons that express TH or GABA / effect on development/survival of late-born neurons compared with total neurons: 2.5 μM
Description: Immunocytochemistry was performed as follows: HuC/D, TH, g-aminobutyric acid (GABA), nNOS, and CGRP were located immunocytochemically to determine the abundance of total, dopaminergic, GABAergic, nitrergic and CGRP-expressing enteric neurons in G56A mice and their respective WT littermates. SERT immunoreactivity was also investigated to determine whether or not it is coincident with TH immunoreactivity in the myenteric plexus. In each experimental group, tissue samples were collected from ilea of 6-8 animals, fixed with 4% formaldehyde for 1.5 hours and washed in PBS. Whole mount preparations of longitudinal muscle with attached myenteric plexus (LMMP) were prepared by dissection. Cultured cells were fixed with 4% formaldehyde for 30 minutes and washed in PBS. Preparations were blocked with 10% normal horse serum for 30 minutes at room temp and then incubated for 48 or 72 hours at 4° C. with primary antibodies. Bound primary antibodies were visualized, respectively, with streptavidin-Alexa 594 for mouse monoclonal antibodies, and donkey antibodies to goat, rabbit, or sheep IgG coupled to Alexa 350, 488 or 594 (diluted 1:200; Invitrogen). Preparations were washed with PBS, mounted in buffered glycerol, and examined with a Leica CTR 6000 microscope. Images were obtained with a cooled CCD camera and analyzed with computer assistance (Volocity 5.4 imaging software; Improvision, Waltham, Mass.). To count the numbers of HuC/D-immunoreactive cells in each LMMP preparation, a motorized stage under computer control was used to scan and collect images with a 40× objective covering the entirety of a 10 mm^2 area. To count the numbers of CGRP-, nNOS- and TH-immunoreactive cells a similar procedure was used, except that images were collected with a 20× objective and that an area of 30 mm^2 was scanned. The higher magnification was needed for HuC/D-immunoreactive cells to be certain that overlapping cells could be distinguished. The lower magnification was advantageous for TH-immunoreactive cells, which are widely separated and relatively rare, because the cells were scattered and large numbers could be imaged for statistical reliability. The collected images were processed using a computer running Volocity 5.6 software to determine the numbers of immunoreactive cells of each type, which were presented as cells/mm^2. TH-immunoreactive terminal axons in the myenteric plexus of ileum of four G56A SERT and four WT mice were examined to study the effects of G56A SERT on the density of extrinsic sympathetic terminals. Sympathetic axons are far more abundant that dopaminergic axons in the myenteric plexus. Their large varicosities and coarse structure also distinguish sympathetic from dopaminergic axons. Dopaminergic neurons, moreover, are primarily located in the submucosal plexus. In each preparation, 3 images were obtained with a 40× objective. The total area occupied by TH-immunoreactive terminals in each image was obtained with computer assistance (Volocity 5.6 software; Improvision, Perkin Elmer).
The hypothesis was tested that 5-HT-promoted enteric neurogenesis is 5-HT4-mediated. The responsible receptor was also sought. ENCDC were isolated from E15 fetal mouse gut with antibodies to p75NTR and cultured in serum-free media. […] The 5-HT4 antagonist, GR113808 (1.0 μM), prevented 5-HT, prucalopride, or BIMU-8 from enhancing development/survival of total dopaminergic or GABAergic neurons.

[2] = system: G56A mice; assay: Small intestinal transit (rhodamine B dextran geometric center) with exogenous 5-HT; assay type: in vivo, mouse; details: G56A mice compared to WT mice (FIG. 2D)
Description: For analysis of gastric emptying and small intestinal transit, mice were fasted overnight in cages that lacked bedding. Water was withdrawn 3 hours before the experiment. A solution containing rhodamine B dextran (100 μl; 10 mg/ml in 2% methylcellulose, Invitrogen, Carlsbad, Calif.) was administered to each mouse by gavage through a 21-gauge round-tip feeding needle. Animals were euthanized 15 minutes after gavage; the stomach, small intestine, cecum, and colon were collected in 0.9% NaCl. The small intestine was divided into 10 segments of equal length and the colon (used to obtain total recovered rhodamine B fluorescence) was divided in half. […] Rhodamine fluorescence was measured in 1 ml aliquots of the supernatant (VersaFluor™ Fluorometer; BIO-RAD Laboratories, Hercules, Calif.). The proportion of the Rhodamine B dextran that emptied from the stomach was calculated as [(total recovered fluorescence−fluorescence remaining in the stomach)/(total recovered fluorescence)]×100.
Small intestinal transit was estimated by the position of the geometric center of the Rhodamine B dextran in the small bowel (Miller et al., 1981). For each segment of the small intestine (1-10), the geometric center (a) was calculated as: a=(fluorescence in each segment×number of the segment)/(total fluorescence recovered in the small intestine). […]

[3] = system: G56A mice; assay: GI motility in mature offspring after prenatal and nursing prucalopride treatment, G56A mice; assay type: in vivo, mouse; details: prucalopride oral in dams' drinking water (24 mg in 350 ml) from early pregnancy until weaning, then stopped
Description: (§1) Carmine red, which cannot be absorbed from the lumen of the gut, was used to study total GI transit time (Kimball et al., 2005). A solution of carmine red (300 μl; 6%; Sigma Aldrich, St. Louis, Mo.) suspended in 0.5% methylcellulose (Sigma Aldrich, St. Louis, Mo.) was administered by gavage through a 21-gauge round-tip feeding needle. The time at which gavage took place was recorded as TO. After gavage, fecal pellets were monitored at 10 minutes intervals for the presence of carmine red. Total GI transit time was considered as the interval between TO and the time of first observance of carmine red in stool.
(§2) Colonic motility was studied as previously described (Li et al., 2006). Briefly, the animals were anesthetized with isoflurane (Baxter Pharmaceutical Products Inc, Deerfield, Ill.). A glass bead (3 mm in diameter) was pushed into the colon to a distance of 2 cm from the anal verge. The time required for expulsion of the glass bead was measured and taken as an estimate of colonic motility.
(§3) The dose of prucalopride was 24 mg into 350 ml of water and the mice were assumed to drink about 5 ml/day. After birth, the prucalopride was continued in the drinking water, and was thus delivered to the newborn and suckling pups via breast milk. When the pups were weaned, the prucalopride was stopped; therefore, the exogenous 5-HT4 stimulation was allowed to cease. […]

[4] = system: WT mice; assay: GI motility in mature offspring after prenatal and nursing prucalopride treatment, WT mice; assay type: in vivo, mouse; details: prucalopride treatment of fetal and nursing mice
Description: as §1, §2, §3

[5] = system: wild-type adult mice and mice lacking 5-HT4 receptors; details: cited from earlier work

Row | Compound | development/survival of total enteric neurons [1] | ability to accelerate small intestinal transit [2] | antagonism of the enhancement by 5-HT, prucalopride or BIMU-8 of development/survival of total dopaminergic or GABAergic neurons ([1]; GR113808 1.0 μM) | development/survival of early-born (calretinin) neurons [1] | development/survival of late-born enteric neurons that express TH or GABA [1] | effect on development/survival of late-born neurons compared with total neurons [1] | GI motility in offspring at ages 2-3 months [3] | GI motility in the mature animals [4] | enteric neurogenesis ([5]; adult mice lacking 5-HT4 receptors) | enteric neurogenesis ([5]; wild-type adult mice)
1 | NCCc1c[nH]c2ccc(O)cc12 [5-HT, 5-hydroxytryptamine] | enhanced the development/survival of total enteric neurons | impaired | – | – | – | – | – | – | – | –
2 | Cn1cc(C(=O)OCC2CCN(CCNS(C)(=O)=O)CC2)c2ccccc21 [GR113808] | – | – | prevented | – | – | – | – | – | – | –
3 | COCCCN1CCC(NC(=O)c2cc(Cl)c(N)c3c2OCC3)CC1 [prucalopride] | enhanced the development/survival of total enteric neurons | – | – | Neither prucalopride nor BIMU-8 enhanced | increased development/survival | significantly greater than on total | restored to normal | not found to exert significant effects | not in those lacking 5-HT4 receptors | stimulate enteric neurogenesis
4 | CC(C)n1c(=O)n(C(=O)NC2CC3CCC(C2)N3C)c2ccccc21 (stereo not drawn) [BIMU-8] | enhanced the development/survival of total enteric neurons | – | – | Neither prucalopride nor BIMU-8 enhanced | increased development/survival | significantly greater than on total | – | – | – | –

— patent US20170071928A1, “METHODS AND PHARMACEUTICAL COMPOSITIONS FOR TREATING DISEASES ASSOCIATED WITH ALTERED SERT ACTIVITY” (THE TRUSTEES OF COLUMBIA UNIVESITY IN THE CITY OF NEW YORK, priority 2014, published 2017)
